pEC50, pKi: −log10 of the molar value.
Assays:
[1] = target: T1, Alpha-1A adrenergic receptor (Homo sapiens, UniProt P35348); assay: Binding affinity to alpha1A adrenergic receptor (unknown origin) by radioligand displacement assay
T1 sequence (P35348 whole entry): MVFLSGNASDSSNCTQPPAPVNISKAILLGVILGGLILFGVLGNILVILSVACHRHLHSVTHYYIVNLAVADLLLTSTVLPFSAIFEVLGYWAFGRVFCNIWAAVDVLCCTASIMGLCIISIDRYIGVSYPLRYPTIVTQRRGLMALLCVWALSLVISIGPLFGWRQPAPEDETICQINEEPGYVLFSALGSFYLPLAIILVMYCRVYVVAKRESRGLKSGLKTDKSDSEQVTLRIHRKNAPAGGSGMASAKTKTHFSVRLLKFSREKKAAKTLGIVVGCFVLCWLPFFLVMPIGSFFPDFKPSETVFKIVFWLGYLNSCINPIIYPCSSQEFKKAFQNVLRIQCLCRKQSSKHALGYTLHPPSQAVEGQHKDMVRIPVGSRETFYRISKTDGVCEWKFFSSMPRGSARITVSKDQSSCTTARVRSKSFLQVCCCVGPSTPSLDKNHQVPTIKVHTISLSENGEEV

[2] = target: 5-hydroxytryptamine receptor 5A (Homo sapiens, UniProt P47898); assay: Binding affinity to 5HT5A receptor (unknown origin) by radioligand displacement assay
[3] = target: Mu-type opioid receptor (Homo sapiens, UniProt P35372); assay: Agonist activity at human mu opioid receptor expressed in CHO-K1 cells assessed as inhibition of forskolin-stimulated cAMP accumulation by HitHunter assay based luminescence analysis; format: functional, cell-based
[4] = target: T2, Alpha-1D adrenergic receptor (Homo sapiens, UniProt P25100); assay: Binding affinity to alpha1D adrenergic receptor (unknown origin) by radioligand displacement assay
T2 sequence (P25100 whole entry): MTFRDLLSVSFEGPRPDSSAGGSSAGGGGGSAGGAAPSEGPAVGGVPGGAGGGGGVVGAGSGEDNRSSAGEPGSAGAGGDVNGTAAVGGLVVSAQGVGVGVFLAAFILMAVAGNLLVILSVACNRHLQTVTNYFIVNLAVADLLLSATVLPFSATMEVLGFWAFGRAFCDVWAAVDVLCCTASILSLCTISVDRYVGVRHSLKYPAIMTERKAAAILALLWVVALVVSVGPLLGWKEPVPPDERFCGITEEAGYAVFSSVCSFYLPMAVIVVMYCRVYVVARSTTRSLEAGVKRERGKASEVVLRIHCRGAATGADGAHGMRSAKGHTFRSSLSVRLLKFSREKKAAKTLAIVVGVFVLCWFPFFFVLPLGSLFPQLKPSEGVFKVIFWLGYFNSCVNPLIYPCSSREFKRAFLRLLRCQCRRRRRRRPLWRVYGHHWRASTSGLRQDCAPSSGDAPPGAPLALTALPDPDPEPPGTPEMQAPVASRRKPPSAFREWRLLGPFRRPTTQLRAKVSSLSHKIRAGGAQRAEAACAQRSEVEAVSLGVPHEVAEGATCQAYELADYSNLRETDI

5-hydroxytryptamine receptor 5A, sequence (P47898 whole entry): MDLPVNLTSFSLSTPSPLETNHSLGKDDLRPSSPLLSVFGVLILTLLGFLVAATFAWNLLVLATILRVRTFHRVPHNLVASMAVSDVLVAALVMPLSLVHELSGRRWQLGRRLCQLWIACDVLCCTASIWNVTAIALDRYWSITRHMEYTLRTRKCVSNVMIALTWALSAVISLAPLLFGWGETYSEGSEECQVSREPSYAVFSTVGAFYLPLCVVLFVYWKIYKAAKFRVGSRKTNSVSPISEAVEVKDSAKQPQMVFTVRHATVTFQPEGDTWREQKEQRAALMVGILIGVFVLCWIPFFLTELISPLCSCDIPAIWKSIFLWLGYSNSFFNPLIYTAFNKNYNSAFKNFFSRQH
Mu-type opioid receptor, sequence (P35372 whole entry): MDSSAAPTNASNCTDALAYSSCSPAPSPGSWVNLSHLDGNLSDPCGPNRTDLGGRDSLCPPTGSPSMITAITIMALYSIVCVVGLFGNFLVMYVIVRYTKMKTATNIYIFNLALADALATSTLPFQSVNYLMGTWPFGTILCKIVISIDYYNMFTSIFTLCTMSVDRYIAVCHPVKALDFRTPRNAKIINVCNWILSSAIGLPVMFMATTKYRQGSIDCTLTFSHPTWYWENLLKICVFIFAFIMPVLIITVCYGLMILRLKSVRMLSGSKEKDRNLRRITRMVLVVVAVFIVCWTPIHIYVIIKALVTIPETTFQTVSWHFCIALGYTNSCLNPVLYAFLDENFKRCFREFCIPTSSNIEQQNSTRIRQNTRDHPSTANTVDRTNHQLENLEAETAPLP

C/C=C1/CN2CC[C@]34C(=C(C(=O)OC)[C@H]1C[C@H]23)Nc1ccc(I)cc14
pKi [1]: 6.05
pKi [2]: 6.08
pEC50 [3]: 4.39
pKi [4]: 5.94

— ChEMBL document CHEMBL6074668 (J Med Chem, 2024)
